Data published in patent publication US7531500B2, “Preventing airway mucus production by administration of EGF-R antagonists” (The Regents of the University of California, priority 1998, dated 2009).

What was measured:
NCI-H292 cells [1] = experiment: Alcian blue/PAS staining of NCI-H292 cells for mucin glycoproteins; type: cell-based, human; conditions: TNFα 20 ng/ml; EGF, TGFα each 25 ng/ml
Description: (§1) Cell culture. A human pulmonary mucoepidermoid carcinoma cell line, NCI-H292 cells, were grown in RPMI11640 medium containing 10% fetal bovine serum, penicillin (100 U/ml), streptomycin (100 μg/ml) at 37° C. in a humidified 5% CO2 water-jacketed incubator. […] In inhibition studies with an EGF-R tyrosine kinase inhibitor, BIBX1522 (10 μg/ml, generously provided by Boehringer Ingelheim Inc., Ingelheim, Germany), cells were pretreated with BIBX1522 30 min before adding growth factors. After incubation, cells grown in a T-75 flask were used for total RNA extraction or protein extraction, and 8-chamber slides were used for Alcian blue/PAS-staining to visualize mucins.

pathogen-free rats = experiment: Goblet cell production in pathogen-free rats after tracheal instillation of TNFα and EGF-R ligands; type: in vivo, rat
Description: Healthy rats. Rats were anesthetized with methohexital sodium (Brevital sodium, 50 mg/kg, i.p.; Eli Lilly & Co., Indianapolis, Ind.) and allowed to breathe spontaneously. […] In each study, sterile PBS (100 μl) was instilled into the trachea as control. […] Rats were pretreated with BIBX1522 (3, 10 or 30 mg/kg, i.p.), 1 h before and 24 h after instillation of TGFα. The trachea and lungs were removed for examination 48 h after the instillation of TGFα.
Tissue preparation. At preselected times during anesthesia, the systemic circulation was perfused with 1% paraformaldehyde in DEPC-treated PBS at a pressure of 120 mmHg. The trachea was then removed and placed in 4% paraformaldehyde for 24 h. After fixation, trachea and lungs were embedded in either JB-4 plus monomer solution A for cell analysis or O.C.T. compound (Sakura Finetek U.S.A., Inc., Torrance, Calif.) for immunohistochemistry and in situ hybridization. The embedded tissues were cut as cross sections ([…] thick) and placed on slides.
Cell analysis. We counted the total number of epithelial cells by counting epithelial cell nuclei over 2 mm of the basal lamina with an oil immersion objective lens (×1000 magnification). The linear length of the basal lamina under each analyzed region of epithelium was determined by tracing the contour of the digitized image of the basal lamina. After instillation of stimuli, “developing” goblet cells form. These cells have Alcian blue/PAS-positive granules, but the size of granules is small, and the number of cytoplasmic granules is few. We call these “developing” goblet cells “pre-goblet cells”, a stage before cells become mature goblet cells. Goblet cells are tall, cuboidal, goblet to low columnar in shape, with abundant Alcian blue/PAS-stained granules filling most of the cytoplasm between the nucleus and the luminal surface. Pre-goblet cells are defined as cells with smaller mucus-stained areas (<1/3 height in epithelium from basement membrane to luminal surface) or with sparsely and lightly Alcian blue/PAS-stained, small granules. Ciliated cells are recognized by their ciliated borders, lightly stained cytoplasm, and large round nuclei. Non-granulated secretory cells are columnar in shape and extend from the lumen to the basal lamina. The cytoplasm stains light pink color, and a few tiny PAS-positive and Alcian blue-negative granules are observed in the cytoplasm. Basal cells are small flattened cells with a large nucleus, located just above the basal lamina but not reaching the airway lumen.
Quantification of goblet cell production. Goblet cell production, was determined by the volume density of Alcian blue/PAS-stained mucosubstances on the mucosal surface epithelium using a semi-automatic imaging system described elsewhere (Weber et al. (1984) Science 224:294-297). We measured the Alcian blue/PAS-positive stained area and the total epithelial area and expressed the data as the percentage of the total area stained by Alcian blue-PAS. The analysis was performed with the public domain NIH Image program (developed at the U.S. National Institute of Health and available from the Internet by anonymous FTP from zippy.nimh.gov or on floppy disk from the National Technical Information Service, Springfield, Va., part number PB95-500195GEI).
Immunohistochemical localization of EGF-R in rat epithelium. The localization of EGF-R was examined using immunchistochemical staining with an antibody to EGF-R (Calbiochem, San Diego, Calif.) in frozen sections of rat trachea. After perfusion with 1% paraformaldehyde in PBS, tissues were placed in 4% paraformaldehyde in PBS for 1 h and then removed in 30% sucrose for cryoprotection overnight. Tracheas were embedded in O.C.T. compound (Sakura Finetek U.S.A., Inc., Torrance, Calif.) and frozen. Frozen sections (5 μm) were cut and placed on glass slides (Superfrost Plus, Fisher Scientific, Pittsburgh, Pa.). Immunostaining was performed similarly to the in vitro studies.

NCI-H292 cells [2] = experiment: Northern analysis for MUC5 gene expression in NCI-H292 cells; type: cell-based, human; conditions: EGF or TGFα 25 ng/ml, TNFα 20 ng/ml; 12 h, 24 h
Description: as §1

EGFR = EGFR (Homo sapiens, UniProt P00533); experiment: Immunoblotting for activated EGFR in NCI-H292 cells; type: cell-based; design: NCI-H292 cells expressed EGSR mRNA constitutively; endogenous in cells; host or cells: NCI-H292 (human pulmonary mucoepidermoid carcinoma); conditions: stimulated 15 minutes
Description: Cells were serum-starved for 24 hours and then stimulated with cigarette smoke solution or with TGFα for 15 minutes. After stimulation, cells were lysed with lysis buffer (20 mM sodium phosphate, pH 7.8, 150 mM NaCl, 5 mM EDTA, 50 mM HEPES, 1% Triton-X100, 50 mM NaF, 1 mM sodium orthovanadate, 5 mM PMSF, and 10 μg/ml each of leupeptin and aprotinin) and incubated for 30 minutes at 4° C. To remove insoluble materials, cell lysates were centrifuged at 14,000 rpm for 5 minutes at 4° C. Aliquots of supernatants containing equal amounts of protein were suspended in SDS sample buffer and boiled for 5 minutes. Proteins were separated by SDS-PAGE in 4-15% acrylamide gel. The resulting gel was equilibrated in the transfer buffer: 25 mM Tris-HCl, 192 mM glycine, 20% (vol/vol) methanol, pH 8.3. The proteins were then transferred electrophoretically to nitrocellulose membranes, which were incubated with 5% fat-free skimmed milk in PBS containing 0.05% Tween 20 for 1 hour and then incubated with anti-phospho-specific EGFR mAb (2 μg/ml, Calbiochem) overnight. Bound Ab was visualized according to a standard protocol for the avidin-biotin-alkaline phosphatase complex method (ABC kit, Vector Laboratories, Burlingame, Calif.).

TGFα: transforming growth factor alpha, EGF-R ligand (recombinant human; rat synthetic in vivo)
PAS-positive staining on incubation with mediator (NCI-H292 cells [1]): increased PAS-positive staining | Goblet cells in tracheal epithelium (pathogen-free rats; TGFα 250 ng alone or 24 h after TNFα 200 ng, i.t., 48 h later, counted over 2 mm basal lamina, mean ± SEM, 5 rats): 5.8 ± 1.2 | % of AB/PAS-stained area (pathogen-free rats; as E9): 6.8 ± 1.9% | Basal cells in tracheal epithelium (pathogen-free rats; as E9): 56.8 ± 2.3 | Ciliated cells in tracheal epithelium (pathogen-free rats; as E9): 54.6 ± 2.3 | Indeterminate cells in tracheal epithelium (pathogen-free rats; as E9): 2.0 ± 0.4 | Pre-goblet cells in tracheal epithelium (pathogen-free rats; as E9): 12.8 ± 1.6 | Secretory cells in tracheal epithelium (pathogen-free rats; as E9): 72.2 ± 4.0 | Total cells in tracheal epithelium (pathogen-free rats; as E9): 204.2 ± 3.3 | MUC5 gene expression on incubation with mediator (NCI-H292 cells [2]): clearly expressed at 24 h | EGFR-specific tyrosine phosphorylation (EGFR): increased
